Calls of active or inactive are those of the source. No cut-off for these calls is given here.

Test system in the first series: not listed separately
The series is described as follows: Cytotoxicity against human PBMC cells assessed as reduction in cell viability up to 50 uM incubated for 48 hrs by MTS assay. The format is cell-based.
Conditions: not given
(Formazan colour is commonly taken as a measure of viable cells.)
Consider `OCc1ccc(CNc2nc(-c3ccco3)cc(C(F)(F)F)n2)cc1`, for which the Activity entry is given as “Non-Toxic”.

In the next series the target is T1, Toll-like receptor 8 (Homo sapiens, UniProt Q9NR97).
T1 sequence (Q9NR97 whole entry): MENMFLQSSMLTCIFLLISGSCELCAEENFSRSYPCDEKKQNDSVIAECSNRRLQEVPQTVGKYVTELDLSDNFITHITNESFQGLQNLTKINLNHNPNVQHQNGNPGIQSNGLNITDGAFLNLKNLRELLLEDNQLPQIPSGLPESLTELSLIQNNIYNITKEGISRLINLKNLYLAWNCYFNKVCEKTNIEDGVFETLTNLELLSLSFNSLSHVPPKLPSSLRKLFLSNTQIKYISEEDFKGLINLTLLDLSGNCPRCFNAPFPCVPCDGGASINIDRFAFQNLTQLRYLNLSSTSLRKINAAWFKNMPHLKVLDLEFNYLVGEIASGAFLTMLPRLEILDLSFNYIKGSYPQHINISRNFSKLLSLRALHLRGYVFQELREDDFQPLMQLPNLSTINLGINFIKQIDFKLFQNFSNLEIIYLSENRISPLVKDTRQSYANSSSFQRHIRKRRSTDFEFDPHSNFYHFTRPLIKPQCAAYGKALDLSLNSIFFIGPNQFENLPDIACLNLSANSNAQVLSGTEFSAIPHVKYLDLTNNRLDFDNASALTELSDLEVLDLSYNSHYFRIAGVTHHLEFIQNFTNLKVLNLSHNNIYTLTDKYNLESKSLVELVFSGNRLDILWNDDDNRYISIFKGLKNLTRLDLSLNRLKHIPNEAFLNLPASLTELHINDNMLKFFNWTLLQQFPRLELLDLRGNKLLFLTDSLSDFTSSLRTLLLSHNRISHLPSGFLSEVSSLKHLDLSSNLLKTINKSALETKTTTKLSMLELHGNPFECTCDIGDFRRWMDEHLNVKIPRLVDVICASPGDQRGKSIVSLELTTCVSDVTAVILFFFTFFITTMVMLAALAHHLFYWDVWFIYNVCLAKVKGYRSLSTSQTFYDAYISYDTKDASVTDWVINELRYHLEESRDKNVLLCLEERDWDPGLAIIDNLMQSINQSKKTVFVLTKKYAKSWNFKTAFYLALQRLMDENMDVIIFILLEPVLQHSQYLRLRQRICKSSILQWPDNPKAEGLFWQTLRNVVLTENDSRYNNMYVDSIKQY
The series is described as follows: (§1) Negative modulator activity at human TLR8 expressed in HEK-Blue hTLR8 cells assessed as inhibition of TL8-506 stimulated NF-kappaB activation preincubated with compound for 1 hr followed by TL8-506 stimulation for 24 hrs by SEAP-based colorimetric assay. The format is cell-based. Particulars: hek-blue htlr8.
With `COc1ccc(CNc2nc(-c3ccco3)cc(C(F)(F)F)n2)cc1`, the IC50 (usually the midpoint of a concentration-inhibition curve) is given as “Not Active”.
On the same count and under the same terms, for `CS(=O)(=O)c1nc(-c2ccccc2)cc(C(F)(F)F)n1` the value was “Not Active”; for `COc1cccc(CNc2nc(-c3ccco3)cc(C(F)(F)F)n2)c1`, “Not Active”; for `O=C(O)c1ccc(CNc2nc(-c3ccco3)cc(C(F)(F)F)n2)cc1`, “Not Active”.
The same measure, in the same setting: next, `Oc1cccc(CNc2nc(-c3ccccc3)cc(C(F)(F)F)n2)c1`: “Not Active”; `OCc1cccc(CNc2nc(-c3ccco3)cc(C(F)(F)F)n2)c1`: “Not Active”.

The series is the same for the next values; noted with them: read-out: IC50.
As for `Oc1ccc(CNc2nc(-c3ccco3)cc(C(F)(F)F)n2)cc1`, the half-maximal inhibitory concentration (IC50) was found to be 11 µM.
In the case of `Oc1cccc(CNc2nc(-c3ccco3)cc(C(F)(F)F)n2)c1`, the IC50 was determined as 23 µM.
Take `FC(F)(F)c1cc(-c2ccco2)nc(NCc2ccccc2)n1`: the IC50 was > 100 µM.
Turning to `FC(F)(F)c1cc(-c2ccco2)nc(NCCc2ccccc2)n1`, the IC50 is > 100 µM.
For `FC(F)(F)c1cc(-c2ccco2)nc(Nc2ccccc2)n1`, the IC50 came out at 77 µM.
For the compound `Oc1cccc(CNc2nc(C3CCCCC3)cc(C(F)(F)F)n2)c1`, the IC50 was 22 µM.

A further series deals with T2, Toll-like receptor 8 (Homo sapiens) (UniProt Q9NR97).
T2 sequence (whole entry): T1 sequence (Q9NR97 whole entry)
The description is as §1. Particulars: filed as modulator, time 25.0 hrs. The format is cell-based.
Regarding `Cc1cc(-c2ccco2)nc(NCc2cccs2)n1`, the inhibition (in general, the share of the control response that was lost under treatment) was “Active”.
Turning to `Cc1ccc(-c2cc(C(F)(F)F)nc(NCc3cccs3)n2)cc1`, the inhibition result is “Active”.
As for `COc1ccc(-c2cc(C(F)(F)F)nc(NCc3cccs3)n2)cc1`, the inhibition result is “Active”.

Staying with this series, now noted: time 25.0 hrs.
On to `FC(F)(F)c1cc(-c2ccco2)nc(NCC2CC2)n1`, for which the inhibition entry was “inactive”.
On the same count and under the same terms, for `CCCCCCNc1nc(-c2ccco2)cc(C(F)(F)F)n1` the value was “inactive”; for `FC(F)(F)c1cc(-c2ccco2)nc(NCCN2CCOCC2)n1`, “inactive”; for `FC(F)(F)c1cc(-c2ccco2)nc(NC2CCC2)n1`, “inactive”.
Still for that read-out and setting: for `CC(C)CNc1nc(-c2ccco2)cc(C(F)(F)F)n1` the value was “inactive”; for `FC(F)(F)c1cc(-c2ccco2)nc(NC2CCCCC2)n1`, “inactive”; for `FC(F)(F)c1ccnc(NCc2cccs2)n1`, “inactive”.
For `CCCNc1nc(-c2ccco2)cc(C(F)(F)F)n1`, the inhibition entry is “inactive”.
Take `FC(F)(F)c1cc(C2CCCCC2)nc(NCc2cccs2)n1`: the inhibition result is “inactive”.
Still for that read-out and setting: for `c1coc(-c2ccnc(NCc3cccs3)n2)c1` the value was “inactive”.
Same read-out and setting: for `C=CCNc1nc(-c2ccco2)cc(C(F)(F)F)n1` the value was “inactive”; for `FC(F)(F)c1cc(-c2ccco2)nc(NC2CCCC2)n1`, “inactive”; for `CCCCNc1nc(-c2ccco2)cc(C(F)(F)F)n1`, “inactive”.
Same read-out and setting: next, `CC(C)Nc1nc(-c2ccco2)cc(C(F)(F)F)n1`: “inactive”.
As to `OCCOCCNc1nc(-c2ccco2)cc(C(F)(F)F)n1`, the inhibition entry was “inactive”.
Still for that read-out and setting: next, `Cc1cc(C(F)(F)F)nc(NCc2cccs2)n1`: “inactive”.
Consider `CCNc1nc(-c2ccco2)cc(C(F)(F)F)n1`, for which the inhibition result was “inactive”.
With `OCCNc1nc(-c2ccco2)cc(C(F)(F)F)n1`, the inhibition entry was “inactive”.
For the compound `FC(F)(F)c1cc(-c2ccco2)ncn1`, the inhibition entry was “inactive”.
Still for that read-out and setting: next, `FC(F)(F)c1cc(-c2ccco2)nc(NC2CC2)n1`: “inactive”.

Another series has as its target T2, Toll-like receptor 8 (Homo sapiens). Nature of the series: Negative modulator activity at human TLR8 expressed in HEK-Blue hTLR8 cells assessed as inhibition of TL8-506 stimulated NF-kappaB activation at 10 uM preincubated with compound for 1 hr followed by TL8-506 stimulation for 24 hrs by SEAP-based colorimetric assay. The format is cell-based. The conditions noted are these: filed as modulator, time 25.0 hrs.
In the case of `FC(F)(F)c1cc(-c2ccccc2)nc(NCc2cccs2)n1`, the inhibition was found to be 50%.

Another series shares this target. Nature of the series: Negative modulator activity at human TLR8 expressed in HEK-Blue hTLR8 cells assessed as inhibition of TL8-506 stimulated NF-kappaB activation at 25 uM preincubated with compound for 1 hr followed by TL8-506 stimulation for 24 hrs by SEAP-based colorimetric assay. The format is cell-based. Particulars: filed as modulator, time 25.0 hrs.
Turning to `NCc1cccc(CNc2nc(-c3ccco3)cc(C(F)(F)F)n2)c1`, the inhibition was found to be 50%.
Regarding `FC(F)(F)c1cc(-c2ccccc2)nc(NCc2cccs2)n1`, the inhibition amounted to 60%.
As to `NCc1ccc(CNc2nc(-c3ccco3)cc(C(F)(F)F)n2)cc1`, the inhibition was determined as 75%.

Test system in a further series: not listed separately
Nature of the series: Cytotoxicity against human PBMC cells assessed as reduction in cell viability at 10 uM incubated for 48 hrs by MTS assay. The format is cell-based.
Conditions: not given
On to `CS(=O)(=O)c1nc(-c2ccco2)cc(C(F)(F)F)n1`, for which the Activity entry was “Toxic”.

Test system in another series: not listed separately
Nature of the series: Cytotoxicity against human HEK-Blue hTLR8 cells assessed as reduction in cell viability at 50 uM by MTT assay. The format is cell-based. Particulars: HEK-Blue hTLR8 cells, read-out: INH.
Regarding `FC(F)(F)c1cc(-c2ccccc2)nc(NCc2cccs2)n1`, the cytotoxicity at 50 µM came out at 40%.

The same series, now with this note: hek-blue htlr8, 50 µM.
For `NCc1cccc(CNc2nc(-c3ccco3)cc(C(F)(F)F)n2)c1`, the Activity entry is “Toxic”.
The same measure, in the same setting: for `NCc1ccc(CNc2nc(-c3ccco3)cc(C(F)(F)F)n2)cc1` the value was “Toxic”.

(Values after ChEMBL document CHEMBL4828757, “Further hit optimization of 6-(trifluoromethyl)pyrimidin-2-amine based TLR8 modulators: Synthesis, biological evaluation and structure-activity relationships” (Eur J Med Chem, 2021).)
